# Test results reported in patent US11497733B2, “Combination therapy of HSP90 inhibitors and PD-1 inhibitors for treating cancer” (Synta Pharmaceuticals Corp., priority 2015, dated 2022).
# Entries after “also recorded” stand apart in the source; their conditions may differ.
# Experiments:
# CT26 tumor cells = test: Chemokine production by CT26 tumor cells in vitro; format: cell-based; settings: overnight, sublethal ganetespib with 300 U/ml TNFα, FIG. 8
# Method: (§1) MC38 or CT26 tumor cells were incubated with the indicated concentrations of ganetespib as shown in FIG. 8 in combination with 300 U/ml TNFα overnight and supernatants were collected and assayed for chemokines.
# [1] = tested on: MC38 colon carcinoma tumors; test: MC38 colon carcinoma syngeneic mouse tumor model, tumor growth; format: in vivo, C57 BL/6 mice; settings: established MC38 tumors; ganetespib 125 mg/kg days 8 and 15; αPD-L1 200 μg days 8, 12, 15; FIG. 1A
# Method: Such findings support the premise that targeting HSP90 may represent a complementary and therapeutically advantageous approach together with immune checkpoint blockade for augmenting antitumor immune responses.
# The HSP90 inhibitor ganetespib potentiates the antitumor efficacy of PD-L1 antibody treatment in syngeneic mouse tumor models. In FIG. 1 (a), C57 BL/6 mice bearing established MC38 colon carcinoma tumors (n=7/group) were treated with 200 μg IgG1 control or anti-PD-L1 antibody (αPD-L1; Sorrento Therapeutics, Inc., San Diego), either alone or in combination with 125 mg/kg ganetespib. Ganetespib was dosed on a weekly schedule (days 8 and 15), αPD-L1 was administered on days 8, 12, and 15. […] In FIG. 1 (b), C57 BL/6 mice bearing established B16 melanoma tumors (n=3/group) were dosed using a similar regimen as in (a).
# MC38 tumor cells = test: Chemokine production by MC38 tumor cells in vitro; format: cell-based, mouse; settings: overnight, sublethal ganetespib with 300 U/ml TNFα, FIG. 8
# Method: as §1
# HCC827 cells = test: MHC Class I surface expression on HCC827 cells, flow cytometry; format: cell-based; settings: overnight incubation, FIG. 7A
# Method: HCC827 cells were incubated with DMSO, Interferon gamma (IFNγ) or ganetespib and stained with anti MHC Class 1 antibodies and examined by flow cytometry to determine the number of molecules per cell surface.
# MC38 tumors = test: Gene expression array (NanoString) of MC38 tumors after a ganetespib dose; format: in vivo, mice
# Method: Mice with MC38 tumors received a dose of ganetespib. Tumors (3 per time point) were removed from the animals at 4, 24, 48 and 120 hr post dose. RNA was prepared and analyzed for gene expression using NanoString. Expression levels of genes were made by comparing drug treated tumors with vehicle-treated tumors.
# MC38 cells = test: MHC Class I (H2-K) surface expression on MC38 cells, flow cytometry; format: cell-based, mouse; settings: overnight, 100 nM ganetespib (sublethal), FIG. 7B
# Method: MC38 cells were incubated overnight with media+0.01% DMSO (dashed red line, light blue line), or media with 100 nM ganetespib (dotted red line, dark blue line). Cells were stained with an isotype control (red lines), or antibody to mouse H2-K (blue lines).
# [2] = within 48-120 hr after in vivo treatment, versus vehicle-treated tumors
structure (smiles),measurement,setting,value
"CC(C)c1cc(-c2nnc(O)n2-c2ccc3c(ccn3C)c2)c(O)cc1O [ganetespib, 3-(2,4-DIHYDROXY-5- ISOPROPYL-PHENYL)-4-(1- METHYL-INDOL-5-YL)-5- HYDROXY-[1,2,4] TRIAZOLE (GANETESPIB)]","chemokine production (CCL2, CCL5, CXCL10)",CT26 tumor cells,"induces chemokine production; also recorded: provokes production of chemokines by the tumor cells (CCL2, CCL5, CXCL10)"
same,tumor growth suppression / antitumor efficacy,[1],comparable degree of tumor growth suppression to that seen following selective anti-PD-L1 antibody treatment
same,"chemokine production (CCL2, CCL5, CXCL10)",MC38 tumor cells,"induces chemokine production; also recorded: provokes production of chemokines by the tumor cells (CCL2, CCL5, CXCL10)"
same,number of HLA-ABC molecules/cell,HCC827 cells,doubled
same,influx of immune cells into tumors (gene expression),"MC38 tumors; after a single ganetespib administration, FIG. 6","influx of T cells, B cells and NK cells into tumors"
same,chemokines in tumor (gene expression),"MC38 tumors; after in vivo treatment, versus vehicle-treated tumors",Increases in a large number of chemokines
same,NK cells and CD8 cells in tumor (gene expression),MC38 tumors; [2],increased numbers of NK cells and CD8 cells
same,Treg cells in tumor (gene expression),MC38 tumors; [2],decreased Treg cells
same,"major histocompatibility antigen (MHC Class I, H2-K) expression",MC38 cells,"upregulates major histocompatibility antigens, especially MHC Class I"
